Reference: patent publication US20250019401A1, “ANTIMICROBIAL PEPTIDE BOLESPLEENIN OF BOLEOPHTHALMUS PECTINIROSTRIS AND APPLICATION THEREOF” (Xiamen University, priority 2023, published 2025)
Where a SMILES comes first, the peptide text is derived from it.

Tests used:
Type in all cases: cell-based
Pseudomonas aeruginosa = tested on: Pseudomonas aeruginosa
Text: (§1) Bacterial strains involved in Embodiment 2 are as follows: Staphylococcus aureus, Acinetobacter baumannii, Escherichia coli, Enterococcus faecium, Enterococcus faecalis, Pseudomonas aeruginosa, Cryptococcus neoformans, Fusarium oxysporum, Aspergillus flavus, and Fusarium solani.
(§2) The bacterial strains are purchased from the China General Microbiological Culture Collection Center (CGMCC).
(§3) A specific analysis method of this embodiment is as follows:
(§4) (1) The conserved strains are coated on a nutrient broth plate, a Yeast Extract Peptone Dextrose (YPD) plate, or a potato dextrose plate and are inverted and incubated for 1-7 days.
(§5) (2) Colonies are picked from the plates, inoculated on a slant with a corresponding medium, continually incubated for 1-7 days, and washed down from the slant with corresponding medium with 10 mMol/L (mM) of sodium phosphate buffer (pH=7.4), and concentrations of suspensions of the bacteria or suspensions of the fungi are adjusted. The suspensions of the bacteria are diluted so that final concentrations are 5×10^5 CFU/mL. Mold spores of the suspensions of the fungi are counted under an optical microscope using a hemocyte counting plate, and concentrations of mold spores are adjusted to final concentrations of 5×10^4 spores/mL.
(§6) (3) Powder of the synthesized antimicrobial peptide Bolespleenin is dissolved in sterilized distillation-distillation H2O (ddH2O), filtered through a 0.22 μm filter membrane, and concentrations of the antimicrobial peptide Bolespleenin are then diluted to 3 μM, 6 μM, 12 μM, 24 μM, 48 μM, 96 μM, and 192 μM, and placed on ice for use.
(§7) (4) A blank control group, a negative control group, and an experimental group of each of the bacteria and the fungi to be tested are set on 96-well cell culture plates, and each of the blank control group, the negative control group, and the experimental group has three parallel samples.
(§8) The blank control group a: 50 μL of the antimicrobial peptide Bolespleenin with 50 μL of the corresponding medium;
(§9) The negative control group b: 50 μL of the sterilized ddH2O with 50 μL of each of the suspensions of the bacteria or the suspensions of the fungi; and
(§10) The experimental group c: 50 μL of the antimicrobial peptide Bolespleenin with 50 μL of each of the suspensions of the bacteria or the suspensions of the fungi.
(§11) (5) The 96-well cell culture plates are plated in an incubator at 28° C. and incubated for 1-2 days, and MIC results of the experimental group are observed. The experimental group is mixed by blowing, an appropriate amount of each of the suspensions of the bacteria or the suspensions of the fungi is sucked up, added dropwise onto the plate with the corresponding medium, and inverted and incubated at an appreciate temperature for 1-2 days, and MBC results are observed.

Staphylococcus aureus = tested on: Staphylococcus aureus
Text: as §1, §2, §3, §4, §5, §6, §7, §8, §9, §10, §11

Enterococcus faecalis = tested on: Enterococcus faecalis
Text: as §1, §2, §3, §4, §5, §6, §7, §8, §9, §10, §11

Cryptococcus neoformans = tested on: Cryptococcus neoformans
Text: as §1, §2, §3, §4, §5, §6, §7, §8, §9, §10, §11

Escherichia coli = tested on: Escherichia coli
Text: as §1, §2, §3, §4, §5, §6, §7, §8, §9, §10, §11

Acinetobacter baumannii = tested on: Acinetobacter baumannii
Text: as §1, §2, §3, §4, §5, §6, §7, §8, §9, §10, §11

Enterococcus faecium = tested on: Enterococcus faecium
Text: as §1, §2, §3, §4, §5, §6, §7, §8, §9, §10, §11

Fusarium solani = tested on: Fusarium solani
Text: as §1, §2, §3, §4, §5, §6, §7, §8, §9, §10, §11

Aspergillus flavus = tested on: Aspergillus flavus
Text: as §1, §2, §3, §4, §5, §6, §7, §8, §9, §10, §11

Fusarium oxysporum = tested on: Fusarium oxysporum
Text: as §1, §2, §3, §4, §5, §6, §7, §8, §9, §10, §11

MIC (a-b) (Pseudomonas aeruginosa): <1.5 µM
MIC (a-b) (Staphylococcus aureus): <1.5 µM
MIC (a-b) (Enterococcus faecalis): 3 to 6 µM
MIC (a-b) (Cryptococcus neoformans): <1.5 µM
MIC (a-b) (Escherichia coli): 3 to 6 µM
MIC (a-b) (Acinetobacter baumannii): 1.5 to 3 µM
MIC (a-b) (Enterococcus faecium): 1.5 to 3 µM
MIC (a-b) (Fusarium solani): 3 to 6 µM
MIC (a-b) (Aspergillus flavus): 6 to 12 µM
MIC (a-b) (Fusarium oxysporum): 3 to 6 µM
Compound: CC[C@H](C)[C@H](NC(=O)[C@@H](N)CC(C)C)C(=O)NCC(=O)N[C@@H](CC(C)C)C(=O)N[C@@H](Cc1ccc(O)cc1)C(=O)N[C@@H](CC(C)C)C(=O)N[C@@H](CC(C)C)C(=O)N[C@@H](Cc1c[nH]cn1)C(=O)N[C@@H](CCCNC(=N)N)C(=O)N[C@@H](CCCNC(=N)N)C(=O)N[C@@H](CCCNC(=N)N)C(=O)N[C@@H](CCCNC(=N)N)C(=O)N[C@@H](CCCNC(=N)N)C(=O)N[C@@H](Cc1c[nH]cn1)C(=O)O [Bolespleenin, Leu-Ile-Gly-Leu-Tyr-Leu-Leu-His-Arg-Arg-Arg-Arg-Arg-His] (H-LIGLYLLHRRRRRH-OH)
MBC (a-b) (Pseudomonas aeruginosa): 1.5 to 3 µM
MBC (a-b) (Staphylococcus aureus): 1.5 to 3 µM
MBC (a-b) (Enterococcus faecalis): 3 to 6 µM
MBC (a-b) (Cryptococcus neoformans): <1.5 µM
MBC (a-b) (Escherichia coli): 6 to 12 µM
MBC (a-b) (Acinetobacter baumannii): 1.5 to 3 µM
MBC (a-b) (Enterococcus faecium): 1.5 to 3 µM
MBC (a-b) (Fusarium solani): 3 to 6 µM
MBC (a-b) (Aspergillus flavus): 24 to 48 µM
MBC (a-b) (Fusarium oxysporum): 3 to 6 µM
